Among the test systems are MDA-MB-435; SK-MEL-2; OVCAR-8; Hs-578T; HOP-62; CCRF-CEM; MDA-N; LOX IMVI; UO-31; SW-620; NCI-H226; HOP-92; M14; IGROV-1; OVCAR-5; K562; SK-OV-3; SK-MEL-5; COLO 205; HCT-15.
Holding throughout (assay): NCI-60 cell line screen, 48 h

The structures appear in SMILES notation.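 Briefly, cells in 96-well plates were exposed to five compound concentrations for 48 h, and endpoints were estimated by linear interpolation. GI50 = concentration required for 50% inhibition of growth.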 The source made the active and inactive calls. Cut-off read from the data, not from the text of the source: active = GI50 up to about 1.1 µM and inactive = higher. Some results are limits rather than exact numbers.

For the compound `CC(C)CNc1nc(N)nc(O)c1NC=O`, the GI50 in the assay on MDA-MB-435, in the assay on SK-MEL-2, in the assay on OVCAR-8, in the assay on Hs-578T, in the assay with HOP-62 and with CCRF-CEM was > 100 µM (inactive) in each case. Also, the GI50 in the assay with MDA-N, in the assay on LOX IMVI, in the assay on UO-31, in the assay on SW-620, with NCI-H226 and in the assay on HOP-92 was > 100 µM (inactive) in each case. For the same compound, the GI50 in the assay with M14, in the assay on IGROV-1, in the assay with OVCAR-5, in the assay with K562, with SK-OV-3 and in the assay with SK-MEL-5 was > 100 µM (inactive) throughout. The results for the GI50 with COLO 205 and in the assay with HCT-15 were > 100 µM (inactive) and more than 100 µM, respectively.

For the compound `N#CCSc1c(-c2ccccc2)c(=O)n(-c2ccccc2)c(=S)n1-c1ccccc1`, the GI50 with MDA-MB-435 was 90.6 µM (inactive); with SK-MEL-2, > 100 µM (inactive); with OVCAR-8, > 100 µM (inactive); with Hs-578T, 51.5 µM (inactive); with HOP-62, > 100 µM (inactive); in the assay with CCRF-CEM, 96.8 µM (inactive). Besides, the GI50 in the assay on MDA-N is 95.3 µM (inactive); in the assay on LOX IMVI it was > 100 µM (inactive); in the assay with UO-31, > 100 µM (inactive); with SW-620, > 100 µM (inactive); in the assay with NCI-H226 it was > 100 µM (inactive); with HOP-92, 4.99 µM (inactive). Also, the GI50 is > 100 µM (inactive) with M14; > 100 µM (inactive) in the assay with IGROV-1; > 100 µM (inactive) in the assay on OVCAR-5; > 100 µM (inactive) in the assay on K562; > 100 µM (inactive) in the assay on SK-OV-3; 84.5 µM (inactive) with SK-MEL-5. The figures for the GI50 with COLO 205 and with HCT-15 were > 100 µM (inactive) and more than 100 µM, respectively.

In the case of `Cn1[nH]nn/c1=N\N=C\c1ccccc1`, the GI50 with MDA-MB-435, in the assay on SK-MEL-2, in the assay with OVCAR-8, in the assay on Hs-578T, with HOP-62 and in the assay on CCRF-CEM was > 10 µM (inactive) in each case. The GI50 in the assay with MDA-N, in the assay on LOX IMVI, in the assay on UO-31, with SW-620, in the assay with NCI-H226 and with HOP-92 was > 10 µM (inactive) each time. In addition, the GI50 in the assay on M14, in the assay with IGROV-1, in the assay on OVCAR-5, in the assay with K562, with SK-OV-3 and in the assay on SK-MEL-5 was > 10 µM (inactive) in each case. Further, the GI50 is > 10 µM (inactive) in the assay on COLO 205 and more than 10 µM in the assay on HCT-15.

As to `NC(=O)c1ccc(NS(=O)(=O)c2ccc(N)cc2)nc1`, the GI50 in the assay with MDA-MB-435, in the assay on SK-MEL-2, in the assay with OVCAR-8, with Hs-578T, in the assay on HOP-62 and in the assay on CCRF-CEM was > 100 µM (inactive) throughout. The GI50 in the assay with MDA-N, in the assay with LOX IMVI, in the assay with UO-31, with SW-620, in the assay on NCI-H226 and in the assay with HOP-92 was > 100 µM (inactive) throughout. Further, the GI50 in the assay on M14, in the assay on IGROV-1, in the assay with OVCAR-5, in the assay on K562, in the assay on SK-OV-3 and with SK-MEL-5 was > 100 µM (inactive) throughout. Besides, the GI50 is > 100 µM (inactive) in the assay on COLO 205 and more than 100 µM in the assay with HCT-15.

On to `NS(=O)(=O)c1ccc(Nc2c3ccccc3nc3c(C(=O)NC(CO)(CO)CO)cccc23)cc1`, for which the GI50 with MDA-MB-435 was 0.212 µM (active); in the assay on SK-MEL-2, 0.21 µM (active); in the assay with OVCAR-8, 0.181 µM (active); in the assay on Hs-578T it was 0.154 µM (active); with HOP-62, 0.178 µM (active); in the assay with CCRF-CEM it was 0.0557 µM (active). Moreover, the GI50 in the assay with MDA-N was 0.272 µM (active); in the assay with LOX IMVI it was 0.132 µM (active); in the assay on UO-31, 0.171 µM (active); in the assay on SW-620, 0.163 µM (active); in the assay on NCI-H226 it was 0.136 µM (active); in the assay on HOP-92, 0.153 µM (active). The GI50 with M14 was 0.186 µM (active); in the assay with IGROV-1, 0.136 µM (active); in the assay on OVCAR-5, 0.233 µM (active); in the assay with K562 it was 0.19 µM (active); in the assay with SK-OV-3, 0.188 µM (active); in the assay with SK-MEL-5 it was 0.107 µM (active). For the same compound, the values for the GI50 in the assay on COLO 205 and in the assay with HCT-15 were 0.0515 µM (active) and 0.282 µM, respectively.

Turning to `CC(=O)Nc1ccc(/C=C2/NC(=S)N(/C=C3\C(=O)Oc4ccccc4C3=O)C2=O)cc1`, the GI50 with MDA-MB-435 was 75.5 µM (inactive); in the assay with SK-MEL-2, 40.9 µM (inactive); in the assay on OVCAR-8, 38.6 µM (inactive); with Hs-578T it was 22.5 µM (inactive); in the assay on HOP-62, 48 µM (inactive); in the assay with CCRF-CEM it was 45.1 µM (inactive). Besides, the GI50 is 52 µM (inactive) in the assay with MDA-N; > 100 µM (inactive) with LOX IMVI; 39.5 µM (inactive) in the assay with UO-31; 91 µM (inactive) in the assay on SW-620; > 100 µM (inactive) in the assay with NCI-H226; 63.2 µM (inactive) in the assay with HOP-92. Further, the GI50 is 58.3 µM (inactive) with M14; 49 µM (inactive) in the assay on IGROV-1; > 100 µM (inactive) in the assay on OVCAR-5; 49.4 µM (inactive) in the assay on K562; 66.1 µM (inactive) in the assay on SK-OV-3; 77.6 µM (inactive) in the assay on SK-MEL-5. For the same compound, the GI50 in the assay with COLO 205 was 61.8 µM (inactive); in the assay with HCT-15, 32.7 µM.

Turning to `CCC1(O)CC(OC2CC(N(C)C)C(OC3CC(O)C(OC4OC(C)C(=O)C=C4N)C(C)O3)C(C)O2)c2c(O)c3c(c(O)c2C1C(=O)OC)C(=O)c1cccc(O)c1C3=O` (stereo not given), the GI50 is 0.00371 µM (active) in the assay with MDA-MB-435; 0.00927 µM (active) in the assay on SK-MEL-2; 0.00398 µM (active) with OVCAR-8; 0.0309 µM (active) with Hs-578T; 0.0239 µM (active) in the assay on HOP-62; 0.00284 µM (active) in the assay on CCRF-CEM. For the same compound, the GI50 in the assay on MDA-N is 0.0048 µM (active); with LOX IMVI, 0.0115 µM (active); in the assay with UO-31, 0.0472 µM (active); in the assay with SW-620 it was 0.00225 µM (active); with NCI-H226 it was 0.0139 µM (active); in the assay on HOP-92 it was 0.0164 µM (active). Also, the GI50 in the assay on M14 was 0.01 µM (active); in the assay with IGROV-1, 0.00354 µM (active); in the assay with OVCAR-5, 0.00792 µM (active); with K562, 0.000196 µM (active); in the assay on SK-OV-3, 0.00274 µM (active); with SK-MEL-5, 0.00417 µM (active). In addition, the values for the GI50 with COLO 205 and in the assay on HCT-15 were 0.00376 µM (active) and 0.0418 µM, respectively.

The values above are taken from ChEMBL document CHEMBL1201862, “PubChem BioAssay data set” (2004).
